Experimental data published in patent US20240101600A1, “FIBROBLAST GROWTH FACTOR RECEPTOR (FGFR)-TARGETING ANTAGONISTIC SHORT PEPTIDE” (WENZHOU MEDICAL UNIVERSITY, priority 2019, published 2024).
Where no end group is shown, it is not given here.

How the values were obtained:
[1] = target: FGFR2B (Homo sapiens, UniProt P21802); assay: SPR detection of interaction with FGFR2B; assay type: binding
[2] = system: FGFR1; assay: Flow cytometry binding of FITC-conjugated P48 to MEF-WT and FGFR1-FGFR2-FRS2a knock-out MEF cells; assay type: cell-based; details: FITC-conjugated P48 1, 10, 100, 1000 nM, 30 min
Procedure: Human embryonic kidney cells HEK-293, fibroblasts MEF-WT and Balb/c 3T3 were inoculated into 6-well plates, respectively. After growing adherently overnight, the cells were pretreated with P48 for 10 min or with AZD4547/PD173074/SSR for 2 h, and incubated with bFGF for 15 min. […] The experimental procedure was as follows: MEF-WT and MEFKO (FGFR1-FGFR2-FRS2a) cells (1×10^6 cells/ml) were inoculated in a 35 mm petri dish. After being adhered to the wall of petri dish overnight, the cells were washed with PBS; FITC-conjugated P48 (1, 10, 100 and 1000 nM) was added, and the cells were incubated in an incubator for 30 min. The cells were immobilized with 1% paraformaldehyde in the dark and washed with PBS. An expression level of the FITC was measured at a fluorescence channel 1 (FL-1) (530 nm), with an excitation wavelength of 488 nm. Data analysis was conducted using CellQuest software (Becton Dickinson).

[3] = system: SGC-7901 cells; assay: MTT viability, SGC-7901 cells; assay type: cell-based; details: 48 h with bFGF
Procedure: (§1) In vitro anti-tumor activity of a short peptide compound P48 Hela229 (1500 cells/100 μl), B16-F10 (1000 cells/100 μl), NCI-H460 (4000 cells/100 μl) and SGC7901 (4000 cells/100 μl) cells were inoculated in 96-well plates. After incubated overnight adherently, the original medium was replaced with a Dulbecco's modified eagle medium (DMEM) containing 0.1% fetal bovine serum (FBS) or a Roswell Park Memorial Institute 1640 (RPMI-1640) medium containing 0.1% FBS, and culture was continued for 24 h. A mixture of P48 and bFGF, or bFGF alone were added into corresponding wells, and incubated for 48 h; an MTT solution (5 mg/mL) prepared by PBS was added to the cells in each well at 37° C., and treated for 4 h. The MTT was removed by aspiration, 150 μL of DMSO was added to each well, shaking was conducted for 10 min, and an optical density (OD) value was quantified with a microplate reader (SpectraMax M2/M2e, Molecular Devices, Sunnyvale, USA) at a wavelength of 490 nm. The percentage of drug growth inhibition rate was calculated by comparing with the bFGF group. […] The experimental procedure was as follows: 10% FBS-containing medium (500 μl) was added to a lower surface of a transwell insertion chamber, the cells together with the drug were inoculated into an upper chamber, and cultured with a serum-free medium (200 μl). […]

[4] = system: gastric cancer cells SGC-7901; assay: Transwell migration of SGC-7901 cells; assay type: cell-based; details: 24 h
Procedure: as §1

[5] = target: FGFR1 (Homo sapiens, UniProt P11362); assay: Western blot of FGFR1 signaling pathway in gastric cancer cells SGC-7901 and MGC-803; assay type: cell-based; set-up: endogenous in cells; host or cells: Hela229; NCI-H460; SGC-7901; MGC-803
Chain of FGFR1 (Homo sapiens, UniProt P11362) (P11362 22-822): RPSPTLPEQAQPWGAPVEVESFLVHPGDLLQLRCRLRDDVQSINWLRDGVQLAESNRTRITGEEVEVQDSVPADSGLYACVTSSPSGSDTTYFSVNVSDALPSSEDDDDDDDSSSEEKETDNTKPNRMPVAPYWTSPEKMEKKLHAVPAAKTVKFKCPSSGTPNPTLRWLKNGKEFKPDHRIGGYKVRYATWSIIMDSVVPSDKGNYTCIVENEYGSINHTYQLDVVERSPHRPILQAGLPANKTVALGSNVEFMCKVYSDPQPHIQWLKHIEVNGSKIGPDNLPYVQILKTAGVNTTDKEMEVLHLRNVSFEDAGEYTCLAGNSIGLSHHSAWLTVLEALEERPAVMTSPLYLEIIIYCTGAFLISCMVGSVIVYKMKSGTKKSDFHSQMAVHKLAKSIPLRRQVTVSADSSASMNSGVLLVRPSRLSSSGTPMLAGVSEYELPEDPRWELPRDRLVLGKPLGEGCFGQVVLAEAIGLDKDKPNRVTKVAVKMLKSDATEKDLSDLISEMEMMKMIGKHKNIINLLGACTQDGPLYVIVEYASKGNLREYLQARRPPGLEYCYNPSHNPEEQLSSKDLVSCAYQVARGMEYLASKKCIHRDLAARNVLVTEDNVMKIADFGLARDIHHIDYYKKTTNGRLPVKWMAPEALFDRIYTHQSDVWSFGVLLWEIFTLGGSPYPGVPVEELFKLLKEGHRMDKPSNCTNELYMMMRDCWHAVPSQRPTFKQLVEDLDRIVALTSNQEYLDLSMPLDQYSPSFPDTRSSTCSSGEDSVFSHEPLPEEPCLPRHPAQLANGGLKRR
Procedure: Cervical cancer cells Hela229, melanoma B16-F10, lung cancer cells NCI-H460, gastric cancer cells SGC-7901 and MGC-803 were inoculated into 6-well plates, respectively. After growing adherently overnight, the cells were pretreated with P48 for 10 min or with AZD4547/SSR for 2 h, and incubated with bFGF for 15 min or with KGF for 20 min.

[6] = gastric cancer cell lines, bFGF stimulation

Chain of FGFR2B (P21802 22-822 isoform P21802-3 limits assumed): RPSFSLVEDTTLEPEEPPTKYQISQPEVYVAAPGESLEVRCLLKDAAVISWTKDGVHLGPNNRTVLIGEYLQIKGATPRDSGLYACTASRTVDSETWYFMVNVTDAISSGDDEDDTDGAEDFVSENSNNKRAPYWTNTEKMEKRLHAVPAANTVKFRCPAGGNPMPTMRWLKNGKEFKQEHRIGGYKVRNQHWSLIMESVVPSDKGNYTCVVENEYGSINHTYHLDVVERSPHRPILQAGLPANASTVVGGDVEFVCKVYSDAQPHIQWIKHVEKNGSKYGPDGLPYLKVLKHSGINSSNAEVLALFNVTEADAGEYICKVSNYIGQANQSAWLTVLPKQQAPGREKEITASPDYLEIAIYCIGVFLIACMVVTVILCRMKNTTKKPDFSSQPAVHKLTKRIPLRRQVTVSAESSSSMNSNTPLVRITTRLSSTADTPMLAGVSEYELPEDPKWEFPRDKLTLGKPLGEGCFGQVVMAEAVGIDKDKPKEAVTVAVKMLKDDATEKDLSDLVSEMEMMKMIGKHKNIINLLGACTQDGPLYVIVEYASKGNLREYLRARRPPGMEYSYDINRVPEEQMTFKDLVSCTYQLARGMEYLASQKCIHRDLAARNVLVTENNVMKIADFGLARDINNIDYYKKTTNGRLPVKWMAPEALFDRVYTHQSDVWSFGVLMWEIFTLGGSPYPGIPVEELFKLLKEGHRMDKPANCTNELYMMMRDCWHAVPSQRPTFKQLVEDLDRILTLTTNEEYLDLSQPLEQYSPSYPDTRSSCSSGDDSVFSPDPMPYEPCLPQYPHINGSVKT

## SPPRYPGGGS-NH2 [P48, Ser-Pro-Pro-Arg-Tyr-Pro-Gly-Gly-Gly-Ser-NH2]
[1]
  binding to FGFR2B: can be bound
[2]
  binding to wild-type versus FGFR1-FGFR2-FRS2a knock-out MEF cells: only has a binding effect on the wild-type MEF cells
[3]
  inhibition of cancer cell viability: can significantly inhibit the viability of cancer cells
[4]
  inhibition of cell migration: can inhibit cell migration in a concentration-dependent manner
[5]; SGC-7901, KGF 20 min
  effect on KGF stimulation: has no effect
[5]; SGC-7901, aFGF 15 min
  effect on aFGF stimulation: has no effect
[5]; SGC-7901, bFGF 15 min
  inhibition of FGFR1 activation under bFGF stimulation: can only inhibit the activation of FGFR1 induced by bFGF
[5]; gastric cancer (SGC-7901, MGC-803), bFGF stimulation
  inhibition of FGFR1 signaling pathway: can inhibit the FGFR1 signaling pathway of cervical cancer, melanoma, lung cancer and gastric cancer in a concentration-dependent manner
[5]; [6]
  activity on FGFR1 signaling compared with AZD4547: weaker than that of AZD4547
  inhibitory effect on FGFR1 signaling compared with SSR: comparable to that of the SSR
